According to PubChem BioAssay (NCI):
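Where inhibition never reached the appropriate level, the endpoint shown equals the highest concentration tested. Otherwise, values were interpolated linearly from a five-concentration, 48-hour dose response in 96-well plates. The concentration for 50% growth inhibition is given as GI50. Definition used: TGI = concentration required for complete inhibition of growth.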

How the values were obtained:
Experiment in all cases: NCI anticancer screen, dose series, 48 h
U251 CNS = test system: U251 CNS
HOP-62 NSCLC = test system: HOP-62 NSCLC
A549 NSCLC = test system: A549 NSCLC
ACHN renal = test system: ACHN renal
SF-539 CNS = test system: SF-539 CNS
HT29 colon = test system: HT29 colon
SK-OV-3 ovarian = test system: SK-OV-3 ovarian
SN12C renal = test system: SN12C renal
M14 melanoma = test system: M14 melanoma
TK-10 renal = test system: TK-10 renal
K-562 leukemia = test system: K-562 leukemia
MCF7 breast = test system: MCF7 breast
HCT-116 colon = test system: HCT-116 colon
HL-60(TB) leukemia = test system: HL-60(TB) leukemia
KM12 colon = test system: KM12 colon
HOP-92 NSCLC = test system: HOP-92 NSCLC
SK-MEL-28 melanoma = test system: SK-MEL-28 melanoma
NCI-H460 lung = test system: NCI-H460 lung
786-0 renal = test system: 786-0 renal
IGROV1 ovarian = test system: IGROV1 ovarian
SW-620 colon = test system: SW-620 colon
SR leukemia = test system: SR leukemia
UACC-62 melanoma = test system: UACC-62 melanoma
UO-31 renal = test system: UO-31 renal
CCRF-CEM leukemia = test system: CCRF-CEM leukemia
SNB-19 CNS = test system: SNB-19 CNS
SK-MEL-2 melanoma = test system: SK-MEL-2 melanoma
DU-145 prostate = test system: DU-145 prostate
HCT-15 colon = test system: HCT-15 colon
MOLT-4 leukemia = test system: MOLT-4 leukemia
UACC-257 melanoma = test system: UACC-257 melanoma
A498 renal = test system: A498 renal
CAKI-1 renal = test system: CAKI-1 renal
RPMI-8226 leukemia = test system: RPMI-8226 leukemia
SK-MEL-5 melanoma = test system: SK-MEL-5 melanoma
MALME-3M melanoma = test system: MALME-3M melanoma
NCI-H226 lung = test system: NCI-H226 lung
OVCAR-3 ovarian = test system: OVCAR-3 ovarian
NCI/ADR-RES ovarian = test system: NCI/ADR-RES ovarian
SF-295 CNS = test system: SF-295 CNS
HS 578T breast = test system: HS 578T breast
COLO 205 colon = test system: COLO 205 colon
MDA-MB-435 = test system: MDA-MB-435
OVCAR-5 ovarian = test system: OVCAR-5 ovarian
SF-268 CNS = test system: SF-268 CNS
NCI-H522 lung = test system: NCI-H522 lung
SNB-75 CNS = test system: SNB-75 CNS
BT-549 breast = test system: BT-549 breast
HCC-2998 colon = test system: HCC-2998 colon
OVCAR-8 ovarian = test system: OVCAR-8 ovarian
RXF 393 renal = test system: RXF 393 renal
PC-3 prostate = test system: PC-3 prostate
NCI-H23 lung = test system: NCI-H23 lung

`COc1ccc2nc3cc(Cl)ccc3c(N3CCN(c4ccnc(N5CCOCC5)n4)CC3)c2c1` showed a GI50 (U251 CNS) greater than 100 µM, a TGI (U251 CNS) greater than 100 µM and a GI50 (HOP-62 NSCLC) of 63.1 µM. It also gave a TGI (HOP-62 NSCLC) greater than 100 µM, a GI50 (A549 NSCLC) greater than 100 µM and a TGI (A549 NSCLC) greater than 100 µM. The GI50 (ACHN renal) was 9.64 µM, the TGI (ACHN renal) was greater than 100 µM and the GI50 (SF-539 CNS) was greater than 100 µM. For the same compound, the TGI (SF-539 CNS) was greater than 100 µM, the GI50 (HT29 colon) was 2.9 µM and the TGI (HT29 colon) was 16.7 µM. The GI50 (SK-OV-3 ovarian) was greater than 100 µM, the TGI (SK-OV-3 ovarian) was greater than 100 µM and the GI50 (SN12C renal) was greater than 100 µM. For the same compound, the TGI (SN12C renal) was greater than 100 µM, the GI50 (M14 melanoma) was greater than 100 µM and the TGI (M14 melanoma) was greater than 100 µM. It also gave a GI50 (TK-10 renal) of 42.5 µM, a TGI (TK-10 renal) greater than 100 µM and a GI50 (K-562 leukemia) of 2.91 µM. The TGI (K-562 leukemia) was greater than 100 µM, the GI50 (MCF7 breast) was 1.89 µM and the TGI (MCF7 breast) was 4.9 µM. The GI50 (HCT-116 colon) was 6.29 µM, the TGI (HCT-116 colon) was greater than 100 µM and the GI50 (HL-60(TB) leukemia) was 8.12 µM. The TGI (HL-60(TB) leukemia) was greater than 100 µM, the GI50 (KM12 colon) was 19.3 µM and the TGI (KM12 colon) was greater than 100 µM. It also gave a GI50 (HOP-92 NSCLC) of 11.5 µM, a TGI (HOP-92 NSCLC) greater than 100 µM and a GI50 (SK-MEL-28 melanoma) of 58.4 µM. For the same compound, the TGI (SK-MEL-28 melanoma) was greater than 100 µM, the GI50 (NCI-H460 lung) was greater than 100 µM and the TGI (NCI-H460 lung) was greater than 100 µM. It also gave a GI50 (786-0 renal) of 4.23 µM, a TGI (786-0 renal) of 34.3 µM and a GI50 (IGROV1 ovarian) greater than 100 µM. For the same compound, the TGI (IGROV1 ovarian) was greater than 100 µM, the GI50 (SW-620 colon) was 4.71 µM and the TGI (SW-620 colon) was greater than 100 µM. The GI50 (SR leukemia) was 3.29 µM, the TGI (SR leukemia) was greater than 100 µM and the GI50 (UACC-62 melanoma) was greater than 100 µM. It also gave a TGI (UACC-62 melanoma) greater than 100 µM, a GI50 (UO-31 renal) greater than 100 µM and a TGI (UO-31 renal) greater than 100 µM. It also gave a GI50 (CCRF-CEM leukemia) of 2.49 µM, a TGI (CCRF-CEM leukemia) greater than 100 µM and a GI50 (SNB-19 CNS) greater than 100 µM. For the same compound, the TGI (SNB-19 CNS) was greater than 100 µM, the GI50 (SK-MEL-2 melanoma) was 53.3 µM and the TGI (SK-MEL-2 melanoma) was greater than 100 µM. The GI50 (DU-145 prostate) was 17.9 µM, the TGI (DU-145 prostate) was greater than 100 µM and the GI50 (HCT-15 colon) was 3.28 µM. The TGI (HCT-15 colon) was greater than 100 µM, the GI50 (MOLT-4 leukemia) was 6.24 µM and the TGI (MOLT-4 leukemia) was greater than 100 µM. For the same compound, the GI50 (UACC-257 melanoma) was greater than 100 µM, the TGI (UACC-257 melanoma) was greater than 100 µM and the GI50 (A498 renal) was 27.8 µM. For the same compound, the TGI (A498 renal) was greater than 100 µM, the GI50 (CAKI-1 renal) was greater than 100 µM and the TGI (CAKI-1 renal) was greater than 100 µM. It also gave a GI50 (RPMI-8226 leukemia) of 2.92 µM, a TGI (RPMI-8226 leukemia) of 10.6 µM and a GI50 (SK-MEL-5 melanoma) greater than 100 µM. It also gave a TGI (SK-MEL-5 melanoma) greater than 100 µM, a GI50 (MALME-3M melanoma) greater than 100 µM and a TGI (MALME-3M melanoma) greater than 100 µM. For the same compound, the GI50 (NCI-H226 lung) was greater than 100 µM, the TGI (NCI-H226 lung) was greater than 100 µM and the GI50 (OVCAR-3 ovarian) was 4.14 µM. For the same compound, the TGI (OVCAR-3 ovarian) was 57.3 µM, the GI50 (NCI/ADR-RES ovarian) was 50.8 µM and the TGI (NCI/ADR-RES ovarian) was greater than 100 µM. The GI50 (SF-295 CNS) was greater than 100 µM, the TGI (SF-295 CNS) was greater than 100 µM and the GI50 (HS 578T breast) was 12.3 µM. The TGI (HS 578T breast) was greater than 100 µM, the GI50 (COLO 205 colon) was 6.66 µM and the TGI (COLO 205 colon) was greater than 100 µM. It also gave a GI50 (MDA-MB-435) of 7.15 µM, a TGI (MDA-MB-435) greater than 100 µM and a GI50 (OVCAR-5 ovarian) of 7.58 µM. The TGI (OVCAR-5 ovarian) was greater than 100 µM, the GI50 (SF-268 CNS) was 9.74 µM and the TGI (SF-268 CNS) was greater than 100 µM. The GI50 (NCI-H522 lung) was 1.81 µM, the TGI (NCI-H522 lung) was 5.09 µM and the GI50 (SNB-75 CNS) was 10.6 µM. For the same compound, the TGI (SNB-75 CNS) was 65.3 µM, the GI50 (BT-549 breast) was greater than 100 µM and the TGI (BT-549 breast) was greater than 100 µM. The GI50 (HCC-2998 colon) was 3.86 µM, the TGI (HCC-2998 colon) was 42.4 µM and the GI50 (OVCAR-8 ovarian) was 43.5 µM. The TGI (OVCAR-8 ovarian) was greater than 100 µM, the GI50 (RXF 393 renal) was 2.68 µM and the TGI (RXF 393 renal) was 16.1 µM. It also gave a GI50 (PC-3 prostate) of 98.1 µM, a TGI (PC-3 prostate) greater than 100 µM and a GI50 (NCI-H23 lung) of 8.61 µM. The TGI (NCI-H23 lung) was greater than 100 µM.
